Test results taken from patent EP0324212A1, “Glucuronic acid derivatives of opioid antagonists” (BAKER NORTON PHARMACEUTICALS, INC., priority 1988, dated 1989).
Values joined by “and” are separate entries in the source; they are usually repeats but may differ in a detail not shown here. Equal values may be shown once. Where a name gives a salt, the structure may show the parent alone. Marks after values point to notes of the source that are not given here.

Columns and labels:
[1] = tested on: morphine-induced hypomotility; assay: Charcoal meal assay (gastrointestinal motility) of Witkin et al.; format: in vivo, mice; settings: for effect on percentage of intestine traveled in the absence of morphine: groups 4 and 6, no morphine; for effect on percentage of intestine traveled in the absence of morphine / alleviation of the depressant effect of morphine on intestinal transit: result in words; for alleviation of the depressant effect of morphine on intestinal transit: groups 5 and 7, morphine 10 mg/kg p.o.
From the text: To determine whether nalmefene glucuronide would alleviate morphine-induced hypomotility, the charcoal meal assay method of Witkin et al. (J. Pharmacol. Ext. Therep., 133: 400, 1961) was done on 56 mice. […]

[2] = Absorption and intestinal distribution of 14C labelled nalmefene glucuronide after oral administration; format: in vivo; settings: rats
From the text: However the 2-3% of the dose which had reached the cecum by this time was almost exclusively free nalmefene. Therefore the glucuronide of an opioid antagonist provides a means of preventing narcotic-induced intestinal hypomotility without interfering with central nervous system effects of narcotics, such as analgesia.

[3] = tested on: opioid-dependant animals; assay: Rapid Quantitative In Vivo Assay for Narcotic Antagonist of Katovich et al. (skin tail temperature rise as a CNS withdrawal sign); settings: Figure 2; injection of 1000 µg/kg
From the text: The Rapid Quantitative In Vivo Assay for Narcotic Antagonist of Katovich et al. (Substance and Alcohol Actions/Misuse, vol 5: 87095, 1984) was used. This assay is based on the extreme sensitivity of opioid-dependant animals to narcotic antagonists. Injection of these animals with a narcotic antagonist produces severe central nervous system withdrawal signs. One of these signs is an abrupt rise in the skin temperature of the tail.

[4] = Morphine 10 mg/kg p.o. 30 minutes before drug p.o., 15 mg/kg or 2.9 x 10⁻⁶ M/kg nalmefene glucuronide, 2.9 x 10⁻⁶ M/kg nalmefene HCl, determined 30 min later
[5] = Saline p.o. 30 minutes before drug p.o. (no morphine), 15 mg/kg or 2.9 x 10⁻⁶ M/kg nalmefene glucuronide, 2.9 x 10⁻⁶ M/kg nalmefene HCl, determined 30 min later

Row | Compound | Percent Meal Traveled ± S.E.M. ([1]; mouse, in vivo) | reduction of the percentage of the intestine traveled ([1]; mouse, in vivo) | absorption following oral administration ([2]; doses as high as 40 mg/kg) | dose present in the small intestine still as nalmefene glucuronide ([2]; oral, 2 hours after dosing) | radioactivity in plasma ([2]; oral, 2 hours after dosing) | rise in skin tail temperature [3] | Percent Meal Traveled ± S.E.M. [1, 4] | Percent Meal Traveled ± S.E.M. [1, 5] | effect on percentage of intestine traveled in the absence of morphine [1] | alleviation of the depressant effect of morphine on intestinal transit ([1]; listed as nalmefene glucuronide) | alleviation of the depressant effect of morphine on intestinal transit ([1]; listed as nalmefene-3β-D-glucuronide) | alleviation of the depressant effect of morphine on intestinal transit ([1]; listed as nalmefene-β-D-glucuronide) | alleviation of the depressant effect of morphine on intestinal transit [1]
1 | CN1CC[C@]23c4c5ccc(O)c4O[C@H]2[C@@H](O)C=C[C@H]3[C@H]1C5 [Morphine] | 28 ± 2 (N=8)^c Percent and 31 ± 3 (N=8)^c,^g Percent | more than half | – | – | – | – | – | – | – | – | – | – | –
2 | C=C1CCC2(O)C3Cc4ccc(OC5OC(C(=O)O)C(O)C(O)C5O)c5c4C2(CCN3CC2CC2)C1O5 [Nalmefene Glucuronide, nalmefene-3β-D-glucuronide] | – | – | not absorbed to any measurable extent | about 85% | No radioactivity could be detected | had no effect | 58 ± 12 (N=5)^d,^e,^h,^i Percent | 66 ± 3 (N=8)^d Percent | neither nalmefene (group 6) nor nalmefene glucuronide (group 4) had any significant effect | protected the intestine against the depressant effect of morphine | as effective as nalmefene | as effective as nalmefene | –
3 | C=C1CC[C@@]2(O)[C@H]3Cc4ccc(O)c5c4[C@@]2(CCN3CC2CC2)[C@H]1O5 [Nalmefene HCl, 6-methylene-6-desoxy-N-cyclopropylmethyl-14-hydroxydihydronormorphine] | – | – | – | – | – | – | 66 ± 14 (N=5)^d,^e,^f Percent | 63 ± 2 (N=8)^c Percent | neither nalmefene (group 6) nor nalmefene glucuronide (group 4) had any significant effect | – | – | – | protected the intestine against the depressant effect of morphine
